Residue numbers refer to the chain shown, from its start.
Experiments:
GST-Mps1 full length [1] = target: T1, GST-Mps1 full length (Homo sapiens, UniProt P33981, C604Y); assay: biochemical
T1 sequence (P33981 1-857 C604Y): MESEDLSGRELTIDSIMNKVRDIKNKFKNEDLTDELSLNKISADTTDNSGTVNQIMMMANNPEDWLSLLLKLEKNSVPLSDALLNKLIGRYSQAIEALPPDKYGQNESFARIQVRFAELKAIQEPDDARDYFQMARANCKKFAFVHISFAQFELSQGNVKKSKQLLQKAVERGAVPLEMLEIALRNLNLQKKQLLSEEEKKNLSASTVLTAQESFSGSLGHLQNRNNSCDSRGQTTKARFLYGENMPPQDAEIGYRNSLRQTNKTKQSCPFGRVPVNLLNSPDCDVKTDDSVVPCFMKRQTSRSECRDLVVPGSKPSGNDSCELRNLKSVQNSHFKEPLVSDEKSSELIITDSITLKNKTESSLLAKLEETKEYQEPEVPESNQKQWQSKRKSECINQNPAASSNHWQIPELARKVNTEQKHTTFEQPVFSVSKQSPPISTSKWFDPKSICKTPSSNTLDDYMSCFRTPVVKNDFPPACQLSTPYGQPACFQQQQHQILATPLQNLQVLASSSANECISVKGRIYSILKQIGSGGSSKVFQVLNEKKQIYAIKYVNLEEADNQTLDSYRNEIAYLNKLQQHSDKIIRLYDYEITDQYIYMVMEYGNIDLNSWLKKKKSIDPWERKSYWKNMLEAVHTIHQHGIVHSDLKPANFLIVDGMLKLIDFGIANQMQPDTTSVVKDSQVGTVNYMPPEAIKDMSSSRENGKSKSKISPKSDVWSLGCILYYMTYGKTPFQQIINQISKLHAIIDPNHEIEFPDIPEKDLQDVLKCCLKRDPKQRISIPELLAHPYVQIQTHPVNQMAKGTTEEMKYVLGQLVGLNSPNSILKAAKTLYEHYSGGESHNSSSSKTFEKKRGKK

Mps1 kinase domain [2] = target: T2, Mps1 kinase domain (Homo sapiens, UniProt P33981, C604Y); assay: microscale thermophoresis, DY-547P1 labelled protein; assay type: binding
T2 sequence (P33981 519-808 C604Y): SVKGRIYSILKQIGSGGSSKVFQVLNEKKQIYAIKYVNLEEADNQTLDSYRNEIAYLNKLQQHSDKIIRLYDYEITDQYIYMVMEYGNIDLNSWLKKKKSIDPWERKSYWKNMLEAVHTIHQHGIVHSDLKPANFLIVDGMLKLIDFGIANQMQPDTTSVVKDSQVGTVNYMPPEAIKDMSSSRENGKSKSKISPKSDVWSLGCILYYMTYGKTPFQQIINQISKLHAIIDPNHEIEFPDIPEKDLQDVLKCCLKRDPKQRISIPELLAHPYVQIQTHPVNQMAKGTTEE

Mps1 kinase domain [3] = target: T3, Mps1 kinase domain (Homo sapiens, UniProt P33981); assay: as above; assay type: binding
T3 sequence (P33981 519-808): T2 sequence (P33981 519-808 C604Y) with Y86C

Mps1 kinase domain [4] = target: T4, Mps1 kinase domain (Homo sapiens, UniProt P33981, C604W); assay: as above; assay type: binding
T4 sequence (P33981 519-808 C604W): T2 sequence (P33981 519-808 C604Y) with Y86W

GST-Mps1 full length [5] = target: T5, GST-Mps1 full length (Homo sapiens, UniProt P33981); assay: biochemical
T5 sequence (P33981 1-857): T1 sequence (P33981 1-857 C604Y) with Y604C

GST-Mps1 full length [6] = target: T6, GST-Mps1 full length (Homo sapiens, UniProt P33981, C604W); assay: biochemical
T6 sequence (P33981 1-857 C604W): T1 sequence (P33981 1-857 C604Y) with Y604W

IC50 (GST-Mps1 full length [1]): 0.17 ± 0.03 µM | Kd (Mps1 kinase domain [2]): 0.471 ± 0.05 µM | Kd (Mps1 kinase domain [3]): 0.0016 ± 0.0002 µM | Kd (Mps1 kinase domain [4]): 0.349 ± 0.081 µM | IC50 (GST-Mps1 full length [5]): 0.0092 ± 0.0016 µM | IC50 (GST-Mps1 full length [6]): 0.019 ± 0.001 µM
Compound: CCc1cccc(CC)c1NC(=O)c1nn(C)c2c1CCc1cnc(Nc3ccc(N4CCN(C)CC4)cc3OC)nc1-2 [Cpd-5, N-(2,6-diethylphenyl)-8-((2-methoxy-4-(4-methylpiperazin-1-yl)phenyl)amino)-1-methyl-4,5-dihydro-1H-pyrazolo[4,3-h]quinazoline-3-carboxamide]
